Patent US11446269B2, “Methods of reducing or preventing oxidation of small dense LDL or membrane polyunsaturated fatty acids” (Amarin Pharmaceuticals Ireland Limited, priority 2014, dated 2022)

Tested on: HUVECs
Test: NO and ONOO^− release from HUVECs treated concomitantly with agent-treated oxLDL (Example 11, objective 2)
Format: cell-based, human
Settings: oxLDL 11 mg/dL treated 30 min with agents 10 μM, 60 min exposure, calcium ionophore; in nM
Protocol: Human umbilical vein endothelial cells (HUVECs) were obtained from healthy, female donors and isolated into primary, proliferating cell cultures (Clonetics, San Diego, Calif.). The cells were incubated in 95% air/5% CO2 at 37° C. and passaged by an enzymatic (trypsin) procedure. The confluent cells (4 to 5×10^5 cells/35 mm dish) were plated with minimum essential medium containing 3 mM L-arginine and 0.1 mM BH4 [(6R)-5,6,7,8-tetrahydrobiopterin]. Before experimental use, the cells (from second or third passage) were rinsed twice with Tyrode-HEPES buffer with 1.8 mM CaCl2.
Concurrent measurements of NO and ONOO^− were performed with tandem electrochemical nanosensors combined into one working unit with a total diameter of 200-400 nm. Their design is based on previously developed and chemically modified carbon-fiber technology. […]
The amperometric method (with a response time of 0.1 ms) provides a quantitative signal (current) that is directly proportional to changes (from basal levels) in NO or ONOO^− concentration. […] Basal NO or ONOO^− levels were measured by differential pulse voltammetry in separate experiments.
All measurements of NO and ONOO^− were performed on intact endothelial cells. […] Cells will then be treated with calcium ionophore (to maximally stimulate the release of nitrous molecules) and monitored continuously for changes in amperometric current. […]

CC/C=C\C/C=C\C/C=C\C/C=C\C/C=C\C/C=C\CCC(=O)O [DHA, docosahexaenoic acid]
ONOO^− release: 240 ± 27^
